# Source: ChEMBL document CHEMBL5260832, “Hepatoprotective natural triterpenoids” (Eur J Med Chem, 2018)
# Assays:
# [1] = system: L02; experiment: Protection against D-GalN-induced toxicity in L02 cells […] assessed as reduction in cell growth relative to control; assay type: functional, Homo sapiens; parameters: scale not given: the % may be the effect or the level left
# [2] = system: HepG2; experiment: Hepatoprotective activity against H2O2-induced cell death in human HepG2 cells assessed as reduction in AST level at 20 uM preincubated for 1 hr followed by H2O2-stimulation and measured after 24 hrs; assay type: functional
# [3] = system: HepG2; experiment: Hepatoprotective activity against H2O2-induced cell death in human HepG2 cells assessed as reduction in ALT level at 20 uM preincubated for 1 hr followed by H2O2-stimulation and measured after 24 hrs; assay type: functional
# [4] = Hepatotoxicity in rat hepatocyte assessed as change in GSH level at 30 microg/mL relative to control; assay type: toxicity, cell-based; settings: hepatocytes, at 30 µg/mL
# [5] = system: Hepatocyte; experiment: Hepatoprotective activity against D-GaIN/TNFalpha-induced cell death in mouse hepatocyte at 25 uM relative to control; assay type: functional
# [6] = system: Hepatocyte; experiment: Hepatoprotective activity against D-GaIN/TNFalpha-induced cell death in mouse hepatocyte at 100 uM relative to control; assay type: functional, cell-based; settings: dose 100 µM
# [7] = system: L02; experiment: Hepatoprotective activity against D-GaIN-induced in human HL7702 cells assessed as cell damage at 10 uM relative to control; assay type: functional
# [8] = system: Hepatocyte; experiment: Hepatoprotective activity against D-GaIN/TNFalpha-induced cell death in mouse hepatocyte at 100 uM; assay type: functional, cell-based
# [9] = Hepatotoxicity in D-GaIN induced Wistar rat assessed as change in GTP leakage level for 10 days relative to control; assay type: toxicity; settings: in vivo, 240 h, time 10 day
# [10] = Hepatotoxicity in D-GaIN induced Wistar rat assessed as change in induction of TAT level for 10 days relative to control; assay type: toxicity; parameters: concentration or dose not given beside the values; settings: in vivo, 240 h, time 10 day
# [11] = system: Mus musculus; experiment: Hepatoprotective activity against D-GaIN/CCl4 induced liver injury mouse model assessed as reduction in GPT level at 30 microg/kg, iv relative to control; assay type: functional; parameters: scale not given: the % may be the effect or the level left; settings: dose 30 µg/kg
# [12] = organism: Mus musculus; experiment: Hepatoprotective activity against D-GaIN/LPS induced liver injury mouse model assessed as increase in sAST relative to control; assay type: functional
# [13] = organism: Mus musculus; experiment: Hepatoprotective activity against D-GaIN/LPS induced liver injury mouse model assessed as increase in sALT relative to control; assay type: functional
# [14] = system: Mus musculus; experiment: Hepatoprotective activity against D-GaIN/LPS induced liver injury mouse model assessed as reduction in sAST at 100 mg/kg, ip relative to control; assay type: functional; parameters: scale not given: the % may be the effect or the level left
# [15] = system: Mus musculus; experiment: Hepatoprotective activity against D-GaIN/LPS induced liver injury mouse model assessed as reduction in sALT at 100 mg/kg, ip relative to control; assay type: functional; parameters: scale not given: the % may be the effect or the level left
# [16] = system: Hepatocyte; experiment: Hepatoprotective activity against D-GaIN induced liver injury in rat hepatocyte assessed as decrease in ALT level at 30 to 120 uM; assay type: functional; settings: dose 30-120 µM
# [17] = Hepatotoxicity in D-GaIN induced in Wistar rat model hepatocyte assessed as reduction in PLA2 level; assay type: toxicity, cell-based
# [18] = system: Hepatocyte; experiment: Hepatoprotective activity against D-GaIN induced liver injury in rat hepatocyte assessed as decrease in LDH level at 30 to 120 uM; assay type: functional; settings: dose 30-120 µM
# [19] = organism: Mus musculus; experiment: Hepatoprotective activity in mouse liver homogenate assessed as inhibition of iron/ascorbate lipid peroxidation at 5.0 mg/mL relative to control; assay type: functional; parameters: scale not given: the % may be the effect or the level left
# [20] = organism: Mus musculus; experiment: Hepatoprotective activity in mouse liver homogenate assessed as inhibition of iron/ascorbate lipid peroxidation at 0.1 mg/mL relative to control; assay type: functional; parameters: scale not given: the % may be the effect or the level left
# [21] = system: Hepatocyte; experiment: Hepatoprotective activity against D-GaIN-induced toxicity in mouse hepatocyte relative to control; assay type: functional, cell-based
smiles,measurement,setting,value
CC(C)[C@]1(CO)CC[C@@H]([C@H]2[C@H](O)C[C@]3(C)[C@@H]2CC[C@@H]2[C@@]4(C)CC[C@H](O[C@@H]5O[C@H](CO)[C@@H](O)[C@H](O)[C@H]5O[C@@H]5O[C@H](CO)[C@@H](O)[C@H](O)[C@H]5O)C(C)(C)[C@@H]4CC[C@]23C)O1,Activity,[1],22.2%
CC(C)=CC[C@@H](O)[C@@H](C)[C@H]1CC[C@@]2(C)C3=CC[C@H]4C(C)(C)[C@@H](O)CC[C@]4(C)C3=CC[C@]12C,Activity,[2],32.36 U/L
same,Activity,[3],23.22 U/L
C[C@H]1O[C@@H](O[C@H]2CC[C@@]3(C)[C@@H](CC[C@]4(C)[C@@H]3[C@H](O)C[C@@H]3C5=CC(C)(C)CC[C@]5(CO)[C@@H](O)C[C@]34C)[C@]2(C)CO)[C@H](O)[C@@H](O[C@@H]2O[C@H](CO)[C@@H](O)[C@H](O)[C@H]2O)[C@H]1O,Activity,[4],64.7%
CC1(C)CC[C@]2(C(=O)O)CC[C@]3(C)[C@H](C=C[C@@H]4[C@@]5(C)C[C@@H](O)[C@H](O)C(C)(C)[C@@H]5CC[C@]43C)[C@H]2[C@@H]1O,Activity,[5],15.4%
same,Activity,[6],32.9%
CC(C)(O)[C@@H]1CC[C@@H]([C@H]2[C@H](O)C[C@]3(C)[C@@H]2CC[C@@H]2[C@@]4(C)CC[C@H](O[C@@H]5O[C@H](CO)[C@@H](O)[C@H](O)[C@H]5O[C@@H]5O[C@H](CO)[C@@H](O)[C@H](O)[C@H]5O)C(C)(C)[C@@H]4CC[C@]23C)O1,Activity,[1],69.5%
C[C@H]1O[C@@H](O[C@H]2CC[C@@]3(C)[C@@H](CC[C@]4(C)[C@@H]3[C@H](O)C=C3[C@@H]5CC(C)(C)CC[C@]5(CO)[C@@H](O)C[C@]34C)[C@]2(C)CO)[C@H](O)[C@@H](O[C@@H]2O[C@H](CO)[C@@H](O)[C@H](O)[C@H]2O)[C@H]1O,Activity,[4],46.5%
CC(C)=CCC[C@H](C(=O)O)[C@@H]1CC[C@]2(C)C3=C(CC[C@@]12C)[C@@]1(C)CCC(=O)C(C)(C)[C@@H]1CC3=O,Activity,[7],25.6%
CC1=C2C3=CC[C@@H]4[C@@]5(C)C[C@@H](O)[C@H](O)[C@@](C)(CO)[C@@H]5CC[C@@]4(C)[C@]3(C)CC[C@@]2(C(=O)O[C@@H]2O[C@H](CO)[C@@H](O)[C@H](O)[C@H]2O)CC[C@H]1C,IC50,[8],34.6 µM
C[C@H]1[C@H](C)CC[C@@]2(C)[C@@H]1C1=CC[C@@H]3[C@@]4(C)CC[C@@H](O)C(C)(C)[C@@H]4CC[C@@]3(C)[C@]1(C)C[C@@H]2O,Activity,[9],22.7%
same,Activity,[10],48%
C=C(C)[C@@H]1C[C@H](O)C2=C(C(=O)C[C@]3(C)[C@@H]([C@H](C)CCC(=O)O)CC[C@@]23C)[C@@]1(C)CCC(=O)OC,Activity,[2],19.09 U/L
same,Activity,[3],16.06 U/L
CC(C)=CCC[C@](C)(O)[C@H]1CC[C@]2(C)[C@@H]1[C@H](O)C[C@@H]1[C@@]3(C)CC[C@H](O)C(C)(C)[C@@H]3[C@@H](O[C@@H]3O[C@H](CO)[C@@H](O)[C@H](O)[C@H]3O)C[C@]12C [GINSENOSIDE RH1],Activity,[11],72%
same,Activity,[12],90%
same,Activity,[13],93%
CC(C)=CCC[C@H](C(=O)O)[C@@H]1CC[C@]2(C)C3=C(CC[C@@]12C)[C@@]1(C)CC[C@H](O)C(C)(C)[C@@H]1CC3,Activity,[7],50.5%
C=C(C)[C@@H]1C[C@H](O)C2=C(C(=O)C[C@]3(C)[C@@H]([C@H](C)CCC(=O)OC)CC[C@@]23C)[C@@]1(C)CCC(=O)OC,Activity,[2],19.09 U/L
same,Activity,[3],16.06 U/L
CC(C)=CCC[C@](C)(O)C1CC[C@]2(C)[C@@H]1[C@H](O[C@H]1O[C@@H](CO[C@H]3OC[C@H](O)[C@@H](O)[C@@H]3O)[C@H](O)[C@@H](O)[C@@H]1O)C[C@@H]1[C@@]3(C)CC[C@H](O[C@@H]4O[C@H](CO)[C@@H](O)[C@H](O)[C@H]4O[C@@H]4O[C@H](CO)[C@@H](O)[C@H](O)[C@H]4O)C[C@@H]3CC[C@]12C (stereo partly drawn),Activity,[14],40%
same,Activity,[12],40%
same,Activity,[15],33%
same,Activity,[13],33%
CC1(C)CC[C@@]2(C)[C@H](C1)C1=CC[C@@H]3[C@@]4(C)CC[C@@H](O)C(C)(C)[C@@H]4CC[C@@]3(C)[C@]1(C)C[C@@H]2O,Activity,[10],5.3%
CO[C@@H]1C=C2[C@@H]3CC(C)(C)CC[C@]3(CO)[C@@H](O)C[C@@]2(C)[C@]2(C)CC[C@H]3C(C)(C)[C@@H](O[C@@H]4O[C@H](C)[C@H](O)[C@H](O[C@@H]5O[C@H](CO)[C@@H](O)[C@H](O)[C@H]5O)[C@H]4O)CC[C@]3(C)[C@@H]12,Activity,[4],75%
CC1(C)CC[C@]2(C(=O)O)CC[C@]3(C)[C@H](C=C[C@@H]4[C@@]5(C)C[C@@H](O)[C@H](O)C(C)(C)[C@@H]5[C@H](O)C[C@]43C)[C@H]2[C@@H]1O,Activity,[5],15.4%
same,Activity,[6],24.4%
C[C@]1(C(=O)O)CC[C@]2(C)CC[C@]3(C)C(=CC(=O)[C@@H]4[C@@]5(C)CC[C@H](O[C@@H]6O[C@H](C(=O)O)[C@@H](O)[C@H](O)[C@H]6O[C@@H]6O[C@H](C(=O)O)[C@@H](O)[C@H](O)[C@H]6O)[C@](C)(CO)[C@@H]5CC[C@]43C)[C@H]2C1,Activity,[16],17.1 U/L
same,IC50,[17],3.6 µM
same,Activity,[18],253.5 U/L
CC1(C)CC[C@]2(C(=O)O)CC[C@]3(C)C(=CC[C@@H]4[C@@]5(C)C[C@@H](O)[C@@H](O)C(C)(C)[C@@H]5CC[C@]43C)[C@@H]2C1,Activity,[19],52.7%
same,Activity,[20],16.8%
C=C(C)[C@@H]1C[C@H](O)C2=C(C(=O)C[C@]3(C)[C@@H]([C@H](C)CCC(=O)O)CC[C@@]23C)[C@@]1(C)CCC(=O)O,Activity,[2],19.09 U/L
same,Activity,[3],16.06 U/L
CC(C)=CCC[C@H](C(=O)O)[C@@H]1CC[C@]2(C)C3=C(CC[C@@]12C)[C@@]1(C)CC[C@@H](O)C(C)(C)[C@@H]1CC3,Activity,[7],30.1%
CC(C)=CCC[C@](C)(O[C@@H]1O[C@H](CO)[C@@H](O)[C@H](O)[C@H]1O)[C@H]1CC[C@]2(C)[C@@H]1[C@H](O)C[C@@H]1[C@@]3(C)CC[C@H](O)C(C)(C)[C@@H]3[C@@H](O[C@@H]3O[C@H](CO)[C@@H](O)[C@H](O)[C@H]3O)C[C@]12C [GINSENOSIDE RG1],Activity,[12],12%
same,Activity,[13],30%
CC(C)=CCC[C@](C)(O)C1CC[C@]2(C)[C@@H]1[C@H](O[C@H]1O[C@@H](CO[C@H]3O[C@@H](CO)[C@H](O)[C@@H](O)[C@@H]3O)[C@H](O)[C@@H](O)[C@@H]1O)C[C@@H]1[C@@]3(C)CC[C@H](O[C@@H]4O[C@H](CO)[C@@H](O)[C@H](O)[C@H]4O[C@@H]4O[C@H](CO)[C@@H](O)[C@H](O)[C@H]4O)C[C@@H]3CC[C@]12C (stereo partly drawn),Activity,[14],40%
same,Activity,[15],33%
CC1(C)CC[C@]2(C(=O)O)CC[C@]3(C)[C@H](C=C[C@@H]4[C@@]5(C)C[C@@H](O)[C@H](O)[C@](C)(CO)[C@@H]5CC[C@]43C)[C@H]2C1,Activity,[5],15.4%
same,Activity,[6],108.4%
C[C@@H]1CC[C@]2(C(=O)O)CC[C@]3(C)C(=CC[C@@H]4[C@@]5(C)C[C@@H](O)[C@H](O)C(C)(C)[C@@H]5CC[C@]43C)[C@@H]2[C@]1(C)O [TOMENTIC ACID],IC50,[21],9.5 µM
C[C@H]1O[C@@H](O[C@H]2CC[C@@]3(C)[C@@H](CC[C@]4(C)[C@@H]3C(=O)C=C3[C@@H]5CC(C)(C)CC[C@]5(CO)[C@@H](O)C[C@]34C)[C@]2(C)CO)[C@H](O)[C@@H](O[C@@H]2O[C@H](CO)[C@@H](O)[C@H](O)[C@H]2O)[C@H]1O,Activity,[4],90.9%
C[C@H]1[C@H](C)CC[C@@]2(C)[C@@H]1C1=CC[C@@H]3[C@@]4(C)CC[C@H](O)C(C)(C)[C@@H]4CC[C@@]3(C)[C@]1(C)C[C@@H]2O,Activity,[9],46.7%
same,Activity,[10],39.8%
C=C(C)[C@@H]1CC[C@]2(C(=O)O)CC[C@]3(C)[C@H](CC[C@@H]4[C@@]5(C)C[C@@H](O)[C@H](O)C(C)(C)[C@@H]5CC[C@]43C)[C@@H]12,Activity,[20],13.7%
CC(C)=C[C@H]1C[C@@H]([C@@H]2CC[C@]3(C)C4=CC(=O)[C@H]5C(C)(C)[C@H](O)CC[C@]5(C)[C@H]4CC[C@@]23C)C(=O)O1,Activity,[7],30.4%
